Test results: a melting point compilation (Tetko et al.; mined from patent text by program, amines drawn as free bases though some values may be those of a salt)

| SMILES | melting point |
| --- | --- |
| Cc1ccccc1N=C=Nc1ccccc1C | 3.5 to 4.5 °C |
| CNN1c2c(cc(Oc3ccc(F)cc3F)c(=O)n2NC)C=NC1NC1CCOCC1 (stereo unspecified) | 80.5 to 89.9 °C |
| OCc1cn(-c2ccc(Cl)cc2)cn1 | 115 to 116 °C |
| CN(C)C(=O)N(C)c1nc2cc(C(C)(C)C)ccc2s1 | 107 to 108 °C |
| CCc1ncnc(NC(C)c2ccc([Si](C)(C)C)cc2)c1Cl (stereo unspecified) | 79 to 80 °C |
| CSCc1c(C(=O)NN2CCCCC2)nn(-c2ccc(Cl)cc2Cl)c1-c1ccc(Cl)cc1 | 183 °C |
| CCCOc1ncc(C(C)=O)cc1-c1nc2c(CC)n(C3CN(C(C)C)C3)nc2c(=O)[nH]1 | 163 to 164 °C |
| CC(C)CC(CS)C(=O)N[C@H]1Cc2cn(c3ccccc23)CCCCCCNC1=O (stereo partly specified) | 224 °C |
| Cn1c(=O)oc2cc3c(cc21)OCC31C(=O)N(CC2CCCO2)c2ccccc21 (stereo unspecified) | 186 to 187 °C |
| CN(C)C(=O)c1nc(-c2cnccn2)nc2c1c1ccc(Cl)cc1n2C | 272 to 273 °C |
| CNC(=O)CC1CN=C(c2cc3cc(Oc4ccc(S(C)(=O)=O)cn4)cc(OC(COC)COC)c3[nH]2)S1 (stereo unspecified) | 123 to 125 °C |
| CC#CCn1c(=N)sc2cc(OC(F)(F)F)ccc21 | 116 °C |
| COc1ccc(-c2c(Cl)c(Cn3cncn3)nc3sc4c(c23)CCSC4)cc1 | 198 to 200 °C |
| COc1ccc(/C=C/c2c(Cl)cncc2Cl)cc1OC1CCCC1 | 99 to 101 °C |
| CC(C)N(NC(=O)OC(C)(C)C)C(=O)NCC(F)(F)F | 90 to 94 °C |
| O=C(O)c1ccc(-c2cc3ccccc3[nH]2)cc1 | 205 °C |
| COC(=O)C(C)N(C(=O)CS)c1c(C)cccc1C (stereo unspecified) | 62.5 to 63 °C |
| COC(=O)c1ccc2[nH]c(=O)n(CCCCN3CC=C(c4ccccc4)CC3)c(=O)c2c1 | 138 °C |
| O=C(Cl)c1ncn(Cc2ccc(Cl)c(Cl)c2)c1C(=O)Cl | 126 to 128 °C |
| NS(=O)(=O)c1ccc(CCO)s1 | 70 to 72 °C |
| Clc1nccnc1Oc1ccc2c(c1)OCO2 | 87 to 88 °C |
| Cc1cccc(NC(=O)CN2CCN(c3ccccc3C#N)CC2)c1 | 168 to 170 °C |
| O=C1C(c2ccc(Cl)cc2)Sc2ccc3ccccc3c2N1CCCCl (stereo unspecified) | 110 to 112 °C |
| CCOc1cc(CO)ccc1OCc1nc(-c2ccccc2)oc1C | 130 to 131 °C |
| CCNC(=O)Nc1cn2ccc(-c3c(C)noc3C)cc2n1 | 204 to 206 °C |
| OCCOc1ccc(I)cc1 | 76 to 77 °C |

| SMILES | melting point |
| --- | --- |
| CN1CCC(C2c3sccc3CCn3ccnc32)CC1 (stereo unspecified) | 121 °C |
| CSc1nnc(-c2ccc3occ(-c4ccccc4Cl)c3c2)o1 | 137 to 138 °C |
| CC(C)(C)c1cc(CCc2ccccc2NC(=O)NCCCCc2ccccc2)cc(C(C)(C)C)c1O | 157 °C |
| CON1C(=O)CC2(CCN(C(=O)c3cccnc3)CC2)C1=O | 199 to 201 °C |
| Sc1ccc2c(c1)Sc1ccc(Cl)cc1N2 | 230 to 232 °C |
| CCC(=O)Nc1c(Cl)cnn1-c1ccc(Cl)c(Cl)c1Cl | 122 °C |
| COc1ccccc1S(=O)(=O)C(C)(Cc1ccc2ncccc2c1)C(=O)NO (stereo unspecified) | 206 °C |
| CC(=O)c1ccnnc1 | 66.5 to 67.5 °C |
| Cc1cc(CCCCCOc2ccc(C3=NCCO3)cc2)on1 | 102 to 104 °C |
| COC(=O)c1ncoc1-c1cccs1 | 64 to 66 °C |
| COC(=O)Cc1cn(-c2ccccc2)nc1OCc1ccc(OCc2nc(-c3ccccc3)oc2C)c(OC)c1 | 107 to 108 °C |
| O=[N+]([O-])c1ccc(CSC(=S)N2Cc3[nH]c4ccccc4c3CC2CO)cc1 (stereo unspecified) | 193 to 194 °C |
| CC(C)n1nc(-c2c(-c3ccccc3)nc(N)nc2N2CCNCC2)ccc1=O | 254 to 256 °C |
| O=C(c1ccccc1)c1cc(-c2ccncc2)c(N2CCOCC2)s1 | 122 °C |
| N#CSCC(=O)c1ccc(Br)cc1 | 148 to 149 °C |
| N#CC(C(=O)Nc1ccccc1)C(=O)c1nn(-c2ccccc2)c2c1Cc1ccccc1-2 (stereo unspecified) | 273 to 277 °C |
| CCOC(=O)Cn1c(C(=O)NCc2nnc(C)n2-c2sc(CC)cc2C(=O)c2ccccc2Cl)cc2ccccc21 | 138 to 140 °C |
| CC(=O)OC1CCC2(C)C(=CCC3C2C(OC(C)=O)CC2(C)C3CCC2(O)C(=O)CO)C1 (stereo unspecified) | 231 to 233 °C |
| COc1ccc2cc([C@H](C)C(=O)OCCS(=O)(=O)CCO)ccc2c1 | 81 to 84 °C |
| CC(C)(C)c1nc(CN2C(=O)C3(COc4cc5c(cc43)OCO5)c3ccccc32)no1 (stereo unspecified) | 183 to 185 °C |
| O=C(O)c1cc(=O)c2oc3ccc(Cl)cc3c(=O)c2n1Cc1ccccc1 | 269 to 271 °C |
| CC(C)N(C(=O)CC=C1CSC(N)=N1)c1ccc(Cl)cc1 | 145 to 147 °C |
| COC(=O)C1=NNC(C)=C(C(=O)OC)C1c1ccccc1 (stereo unspecified) | 187 °C |
| COc1ccc(S(=O)(=O)c2ccccc2)cc1S(=O)(=O)NCCc1cccnc1 | 181 to 183 °C |
| COc1cc(OC)cc(-c2nc[nH]c2-c2ccc(OC)c(O)c2N)c1 | 148 °C |
| CCOCc1nc2c(N)nc3ccc(OCc4ccccc4)cc3c2n1CC(C)(C)NS(C)(=O)=O | 90 °C |

| SMILES | melting point |
| --- | --- |
| CCOP(=O)(/C=C/c1ccc(C(=O)OC)cc1)OCC | 60 to 65 °C |
| Cc1cccc(C(=O)NN2NC=CC2C(=O)NCC(O)c2ccc(C(F)(F)F)cc2)n1 (stereo unspecified) | 250 to 251 °C |
| NC[C@@H]1CNc2cccc(-c3ccccc3C(F)(F)F)c2O1 | 180 °C |
| CC1=Nc2c3cc(-c4ccccc4)nc-3ccn2C1 | 222 °C |
| C=C(c1ccc(N(CC)CC)cc1)c1ccc(N(CC)CC)cc1 | 100 to 102 °C |
| CCCC(=O)NCc1nc(-c2ccc3c(c2)Nc2ccccc2S3)cs1 | 218 to 220 °C |
| CCCCCCCCC(O)C(O)CCCCCCCCCCCC(N)=O (stereo unspecified) | 153 to 154 °C |
| O=C(O)CC1CCCc2c(n(Cc3ccc(-n4ccnc4)cc3)c3ccc(F)cc23)C1 (stereo unspecified) | 237 °C |
| COC(=O)c1ccc(OCC(N)=O)c([N+](=O)[O-])c1 | 185 to 187 °C |
| CC(C)Sc1c(C(=O)O)sc2cccc(Cl)c12 | 107 to 109 °C |
| CCCCC(=O)c1cc(C(=O)O)c2cc(Cc3ccc(F)cc3)cnc2c1O | 227 to 229 °C |
| CC1(C)COC(c2ccccc2-c2ccc(C(=O)O)cc2)=N1 | 190 to 193 °C |
| O=C(c1ccccn1)c1nsc2nccn12 | 147 to 148 °C |
| CN1CCC(C2=C(C#N)C(c3ccccc3Cl)c3c[nH]nc3N2)CC1 (stereo unspecified) | > 270 °C |
| O=C1c2ccccc2COc2cc(C=NO)ccc21 | 170 to 172 °C |
| CCCCC(CC)COc1ccc(N2C(C)=CC(=C=C3C(C#N)C(=C(C#N)C#N)OC3(C)C)C=C2C)cc1 (stereo unspecified) | 237 °C |
| Cc1cc(-c2ccc(Cl)cc2)nc2c(C(=O)O)cnn12 | 233 to 235 °C |
| CCOC(=O)C1=C(C)NC(C(OCC)OCC)=C(C(=O)OCC)C1c1ccco1 (stereo unspecified) | 59 to 60 °C |
| COc1ccc2c(O)c(C(C)C)cc(Br)c2c1 | 81.5 to 83.5 °C |
| CCC(c1ccccc1)c1c(O)c2c(oc1=O)CCCCCC2 (stereo unspecified) | 201 to 202 °C |
| Nc1cc2c(Nc3ccc(Br)c(Br)c3)ncnc2cn1 | 265 to 268 °C |
| O=c1[nH]c2cc(Cl)ccc2c(=O)n1S(=O)(=O)c1cccc2cccnc12 | 284 to 286 °C |
| CC(COc1ccc(N2N=C3c4ccccc4SCC3CC2=O)cc1)N(C)C (stereo unspecified) | 171 to 173 °C |
| NC1=C(N)C(=O)C(N)=C(N)C1=O | 260 to 262 °C |
| CCCC(C)n1sc2ccccc2c1=O (stereo unspecified) | 52 to 54 °C |
| CCOc1cc2c(cc1S(N)(=O)=O)C(CNC(=O)N1CC(C)=C(CC)C1=O)CCO2 (stereo unspecified) | 192 °C |

| SMILES | melting point |
| --- | --- |
| CCc1c(C(F)(F)F)nn(-c2ccc(S(N)(=O)=O)nc2)c1-c1ccc(-c2cscn2)c(F)c1 | 182 to 185 °C |
| N#Cc1cccc(Oc2ncccc2O)c1 | 130 to 133 °C |
| COc1ccc2[nH]c(=O)c(-c3nnn(Cc4cccc(OCc5ccc6ccccc6n5)c4)n3)cc2c1 | 213 to 214 °C |
| Cc1cc(-c2ccc(Cl)cc2)cn2c(-c3nc(-c4cccc(S(N)(=O)=O)c4)no3)cnc12 | 301 °C |
| Cc1ccc(C(=O)NCC(N)=O)cc1-n1c(C)cc(OCc2ccccc2CNC(=O)Nc2cc(C(C)(C)C)nn2-c2ccc(O)c(Cl)c2)c(Cl)c1=O | 228 to 230 °C |
| CCCCN(CCCC)Cc1cc(C(C)(C)C)cc(C(C)(C)C)c1O | 33 to 35 °C |
| N#Cc1cccc(-c2ccc3c(Cl)cnc(Cl)c3c2)c1 | > 300 °C |
| Cc1oc(-c2ccccc2)nc1COc1cccc(COc2cc(Cl)ccc2C(=O)O)c1 | 168 °C |
| CCCCCC(=O)Nc1ncc(OC)cn1 | 102 °C |
| CCCn1nc(C2CC2)c(C(=O)OCC)c1Cc1ccc(-c2ccccc2-c2nnn[nH]2)cc1 | 148 to 149 °C |
| CC(C)(CO)Nc1nc(-c2cccc(C#N)c2)cs1 | 124 to 126 °C |
| C[C@H](O)Cn1c(=O)c(Oc2ccc(F)cc2F)cc2cnc(NC(C)(C)CO)nc21 | 182 to 184 °C |
| CNCC#CC1=Cc2ccccc2Sc2ccc(Cl)cc21 | 92 to 94 °C |
| CC(C)(O)CN1CCN(c2ccc3nc(-c4cccs4)c(-c4ccncc4)n3n2)CC1 | 165 to 168 °C |
| CN(C)Cc1ccc(CSCCNc2ncc(-c3ccccc3)c(=O)[nH]2)o1 | 116 to 118 °C |
| CCc1ccc2c(=O)c(-c3nnn[nH]3)cn(C)c2c1 | 180 to 181 °C |
| Cc1ccc(-c2ccc3cc(C(=O)Nc4ccc(CN(C)C5CCOCC5)cc4)n(C)c3c2)cc1 | 225 to 226 °C |
| CCN(CC)CCSC1=C(C#N)C(c2ccccc2)(c2cccs2)C(=O)N1 (stereo unspecified) | 165 °C |
| COc1ccccc1C1CC(=O)Oc2ccc(C)cc21 (stereo unspecified) | 140 °C |
| COCCN1CC(C(=O)OC)N(S(=O)(=O)c2ccc(OC)cc2)Cc2ccccc21 (stereo unspecified) | 86 to 90 °C |
| COC(=O)[C@H]1NC(=O)[C@H]1NC(=O)Cc1ccccc1 (relative stereo) | 176 to 180 °C |
| COc1cc2c(cc1OC(=O)C=Cc1ccccc1)C1Cc3c(Cl)cc(OC)c(OC(=O)C=Cc4ccccc4)c3CN1CC2 (stereo unspecified) | 240 to 242 °C |
| Cc1ccc(-c2ccccc2C#N)nc1 | 80 to 81 °C |
